Each structure is given as a SMILES string. ≈ marks a conversion by molar mass, not a printed value.

As usually defined, the GI50 is the concentration at which growth is held to half of that of the control.

Format in all cases: functional
The test system of assay [1] is Staphylococcus aureus. Description: Antibacterial activity against Staphylococcus aureus ATCC 29213 assessed as bacterial growth inhibition measured after 24 hrs by agar disc diffusion assay. (In general: Agar diffusion results depend on both activity and mobility in agar.)
In assay [2] the test system is Escherichia coli. Description: Antibacterial activity against Escherichia coli ATCC 25922 assessed as bacterial growth inhibition measured after 24 hrs by agar disc diffusion assay.
For assay [3], the system named is Pseudomonas aeruginosa. Put plainly: Antibacterial activity against Pseudomonas aeruginosa ATCC 27853 assessed as bacterial growth inhibition measured after 24 hrs by agar disc diffusion assay.
Assay [4] has as its system Escherichia coli. Put plainly: Antibacterial activity against Escherichia coli ATCC 35218 assessed as bacterial growth inhibition measured after 18 to 24 hrs by two fold microdilution assay. The note with it: ATCC35218, time 18-24 hrs.
Assay [5] deals with Klebsiella pneumoniae. Description: Antibacterial activity against Klebsiella pneumoniae assessed as bacterial growth inhibition measured after 18 to 24 hrs by two fold microdilution assay. To be noted: time 18-24 hrs.
For assay [6], the system named is Staphylococcus aureus. Put plainly: Antibacterial activity against Staphylococcus aureus ATCC 25923 assessed as bacterial growth inhibition measured after 18 to 24 hrs by two fold microdilution assay. The note with it: time 18-24 hrs. In general terms: Broth dilution looks for growth in wells or tubes with falling amounts of substance.
In assay [7] the test system is Staphylococcus aureus. Put plainly: Antibacterial activity against Staphylococcus aureus clinical isolate assessed as zone of inhibition at 50 mg/ml by agar diffusion assay. The note with it: read-out: IZ.
The subject of assay [8] is Escherichia coli. Put plainly: Antibacterial activity against Escherichia coli clinical isolate assessed as zone of inhibition at 50 mg/ml by agar diffusion assay. The note with it: read-out: IZ.
Assay [9] has as its system Staphylococcus aureus. Put plainly: Antibacterial activity against Staphylococcus aureus ATCC 25923 assessed as zone of inhibition at 50 mg/ml by agar diffusion assay. To be noted: read-out: IZ.
Assay [10] deals with Escherichia coli. Put plainly: Antibacterial activity against Escherichia coli ATCC 25922 assessed as zone of inhibition at 50 mg/ml by agar diffusion assay. To be noted: read-out: IZ.
Assay [11] has as its system Escherichia coli. Description: Potency index, ratio of ciprofloxacin MIC to test compound MIC for antimicrobial activity against Escherichia coli assessed as bacterial growth inhibition by agar cup diffusion assay.
The test system of assay [12] is Klebsiella pneumoniae. Description: Antibacterial activity against Klebsiella pneumoniae assessed as bacterial growth inhibition by agar cup diffusion assay.
Assay [13] has as its system Mycobacterium tuberculosis. Put plainly: Antimycobacterial activity against pan sensitive Mycobacterium tuberculosis R2012-123 assessed as bacterial growth inhibition by agar cup diffusion assay.
For assay [14], the system named is Escherichia coli. Put plainly: Antibacterial activity against Escherichia coli assessed as bacterial growth inhibition by agar cup diffusion assay.
Assay [15] deals with Staphylococcus aureus. Description: Antibacterial activity against Staphylococcus aureus assessed as bacterial growth inhibition by agar cup diffusion assay.
The subject of assay [16] is Staphylococcus aureus. Put plainly: Potency index, ratio of ciprofloxacin MIC to test compound MIC for antimicrobial activity against Staphylococcus aureus assessed as bacterial growth inhibition by agar cup diffusion assay.
Assay [17] relates to Mycobacterium tuberculosis. Description: Antimycobacterial activity against Mycobacterium tuberculosis H37Rv assessed as bacterial growth inhibition by agar cup diffusion assay.
Assay [18] concerns Pseudomonas aeruginosa. Put plainly: Antibacterial activity against Pseudomonas aeruginosa assessed as bacterial growth inhibition by agar cup diffusion assay.
Assay [19] has as its system Staphylococcus aureus. Put plainly: Antibacterial activity against Staphylococcus aureus ATCC 29213 assessed as bacterial growth inhibition by agar dilution assay. For orientation: In agar dilution the substance is mixed into plates at graded concentrations.
Assay [20] relates to Klebsiella pneumoniae. Description: Antibacterial activity against Klebsiella pneumoniae assessed as bacterial growth inhibition by agar dilution assay.
The subject of assay [21] is Acinetobacter baumannii. Description: Antibacterial activity against Acinetobacter baumannii assessed as bacterial growth inhibition by agar dilution assay.
The test system of assay [22] is Staphylococcus aureus. Description: Antibacterial activity against Staphylococcus aureus assessed as bacterial growth inhibition by agar dilution assay.
Assay [23] concerns Escherichia coli. Put plainly: Antibacterial activity against Escherichia coli ATCC 25922 assessed as bacterial growth inhibition by agar dilution assay.
Assay [24] deals with Staphylococcus aureus. Description: Antibacterial activity against Staphylococcus aureus ATCC 25923 assessed as bacterial growth inhibition by agar dilution assay.
The subject of assay [25] is Pseudomonas aeruginosa. Description: Antibacterial activity against Pseudomonas aeruginosa ATCC 27853 assessed as bacterial growth inhibition by agar dilution assay.
Assay [26] deals with Staphylococcus aureus. Description: Antibacterial activity against methicillin resistant Staphylococcus aureus assessed as bacterial growth inhibition by agar dilution assay.
Assay [27] has as its system Staphylococcus aureus. Put plainly: Potency index, ratio of ciprofloxacin MIC to test compound MIC for antibacterial activity against Staphylococcus aureus ATCC 25923 assessed as bacterial growth inhibition measured after 18 to 24 hrs by agar dilution assay. The note with it: time 18-24 hrs.
Assay [28] deals with Staphylococcus aureus. Put plainly: Antibacterial activity against Staphylococcus aureus ATCC 25923 assessed as bacterial growth inhibition measured after 18 to 24 hrs by agar dilution assay. The note with it: time 18-24 hrs.
Assay [29] deals with Staphylococcus aureus. Description: Antibacterial activity against Staphylococcus aureus assessed as bacterial growth inhibition by broth microdilution assay.
The test system of assay [30] is Staphylococcus aureus. Description: Potency index, ratio of norfloxacin MIC to test compound MIC for antimicrobial activity against Staphylococcus aureus assessed as bacterial growth inhibition measured after 18 to 24 hrs inhibition by broth microdilution assay. To be noted: time 18-24 hrs.
Assay [31] concerns Escherichia coli. Put plainly: Antibacterial activity against Escherichia coli assessed as bacterial growth inhibition by broth microdilution assay.
The subject of assay [32] is Pseudomonas aeruginosa. Put plainly: Antibacterial activity against Pseudomonas aeruginosa assessed as zone of inhibition at 250 ug/ml by agar well diffusion assay. The note with it: read-out: IZ.
Assay [33] relates to Klebsiella pneumoniae. Description: Antibacterial activity against Klebsiella pneumoniae assessed as zone of inhibition at 250 ug/ml by agar well diffusion assay. The note with it: read-out: IZ.
In assay [34] the test system is Staphylococcus aureus. Description: Antibacterial activity against Staphylococcus aureus assessed as zone of inhibition at 250 ug/ml by agar well diffusion assay. The note with it: read-out: IZ.
Assay [35] deals with Escherichia coli. Description: Antibacterial activity against Escherichia coli assessed as zone of inhibition at 250 ug/ml by agar well diffusion assay. The note with it: read-out: IZ.
Assay [36] deals with Aspergillus niger. Description: Antifungal activity against Aspergillus niger assessed as fungal growth inhibition by agar well diffusion assay.
The subject of assay [37] is Candida albicans. Put plainly: Antifungal activity against Candida albicans assessed as fungal growth inhibition by agar well diffusion assay.
The test system of assay [38] is Staphylococcus aureus. Description: Antibacterial activity against Staphylococcus aureus assessed as bacterial growth inhibition measured after 16 to 24 hrs by broth microdilution assay. To be noted: time 16-24 hrs.
Assay [39] relates to Enterococcus. Description: Antibacterial activity against vancomycin resistant Enterococcus assessed as bacterial growth inhibition measured after 16 to 24 hrs by broth microdilution assay. To be noted: time 16-24 hrs.
The subject of assay [40] is Streptococcus agalactiae. Description: Antibacterial activity against Streptococcus agalactiae assessed as bacterial growth inhibition measured after 16 to 24 hrs by broth microdilution assay. The note with it: time 16-24 hrs.
In assay [41] the test system is Staphylococcus aureus. Put plainly: Antibacterial activity against methicillin resistant Staphylococcus aureus assessed as bacterial growth inhibition measured after 16 to 24 hrs by broth microdilution assay. The note with it: time 16-24 hrs.
The subject of assay [42] is Haemophilus influenzae. Put plainly: Antibacterial activity against Haemophilus influenzae assessed as bacterial growth inhibition measured after 16 to 24 hrs by broth microdilution assay. To be noted: time 16-24 hrs.
Assay [43] has as its system MDA-MB-231. Description: Growth inhibition of human MDA-MB-231 cells measured after 48 hrs by SRB assay.
In assay [44] the test system is SiHa. Description: Growth inhibition of human SiHa cells measured after 48 hrs by SRB assay.

For `COC(=O)[C@H](C)NC(=O)c1cc(=O)n(Cc2cn([C@@H](NC(=O)c3ccccc3)C(=O)OC)nn2)c2ccccc12`, the MIC in assay [1], in [2] and in [3] was 19 µg/mL (≈ 34.8 µM) in each case.

In the case of `CCn1cc(C(=O)O)c(=O)c2cc(F)c(N3CCN(Cn4nc(CN5CCN(c6ccc(F)cc6)CC5)n(-c5ccccc5)c4=O)CC3)cc21`, the MIC in assay [4], in [5] and in assay [6] was under 0.24 µg/mL each time.

`COC(=O)[C@H](C)NC(=O)c1cc(=O)n(Cc2cn(C3O[C@H]4OC(C)(C)O[C@H]4[C@@H]4OC(C)(C)OC[C@@H]34)nn2)c2ccccc12` (some centres undefined): the MIC in [1], in assay [2] and in assay [3] was 9.75 µg/mL (≈ 16.3 µM) throughout.

Consider `COC(=O)c1cn(C2CC2)c2cc(N3CCN(C(=O)c4nnn(-c5ccc(OC)cc5)c4N)CC3)c(F)cc2c1=O`, for which the zone of inhibition at 50000 µg/mL in [7], in assay [8], in assay [9] and in assay [10] was 26.3 mm each time.

Take `O=C(CN1CCN(c2cc3c(cc2F)c(=O)c(C(=O)O)cn3C2CC2)CC1)Nc1nnc(-c2ccccc2)s1`: the Ratio in assay [11] and in assay [16] was 4.6 in each case. In addition, the MIC stood at 1.12 µg/mL (≈ 2.04 µM) in [12]; 8 µg/mL (≈ 14.6 µM) in assay [13]; 1.12 µg/mL (≈ 2.04 µM) in assay [14]; 1.12 µg/mL (≈ 2.04 µM) in assay [15]; 8 µg/mL (≈ 14.6 µM) in assay [17]; 7.4 µg/mL (≈ 13.5 µM) in assay [18].

For `CCOC(=O)c1cn(Cc2nc3ccccc3n2Cc2ccccc2F)c2cc(Cl)c(F)cc2c1=O`, the MIC in [19], in assay [20], in [21], in assay [22], in assay [23] and in assay [24] was 1 µg/mL (≈ 1.97 µM) each time. For the same molecule, the MIC in [25] and in [26] was 1 µg/mL (≈ 1.97 µM) each time.

In the case of `CCOC(=O)c1cn(C2CC2)c2cc(N3CCN(Cc4cn(-c5ccc(C(C)=O)cc5)nn4)CC3)c(F)cc2c1=O`, in assay [27], the Ratio is 2. For the same molecule, the MIC in [28] is 3.12 µg/mL (≈ 5.59 µM).

`O=C(O)c1cn(C2CC2)c2cc(N3CCN(Cc4nnc(-c5ccc(O)cc5)o4)CC3)c(F)cc2c1=O`: the MIC in assay [29] was 0.125 µg/mL (≈ 0.247 µM); in assay [15], 0.2 µg/mL (≈ 0.396 µM); in [31] it was at most 0.125 µg/mL. Also, the Ratio entry in assay [16] and in [30] was “>=4” in each case.

As to `COC(=O)c1cn(C2CC2)c2cc(N3CCN(CC(=O)OC(C)Cn4c([N+](=O)[O-])cnc4C)CC3)c(F)cc2c1=O` (centres undefined), the zone of inhibition at 250 µg/mL in assay [32], in assay [33], in assay [34] and in assay [35] was 19 mm in each case.

For the molecule `Clc1ccccc1C(c1ccccc1)(c1ccccc1)n1ccnc1` [CLOTRIMAZOLE], the MIC was found to be 1.56 µg/mL (≈ 4.52 µM) in assay [36] and 1.28 µg/mL (≈ 3.71 µM) in assay [37].

Take `CC(=O)NC[C@H]1CN(c2ccc(N3CCOCC3)c(F)c2)C(=O)O1` [LINEZOLID]: the MIC in assay [38], in assay [39], in assay [40], in [41] and in assay [42] was 1 µg/mL (≈ 2.96 µM) in each case.

Consider `CC/C(=C(\c1ccccc1)c1ccc(OCCN(C)C)cc1)c1ccccc1` [TAMOXIFEN], for which the GI50 in assay [43] turned out to be 240 nM; in assay [44] it was 120 nM.

The values are drawn from ChEMBL document CHEMBL5360532, “Current scenario of quinolone hybrids with potential antibacterial activity against ESKAPE pathogens” (Eur J Med Chem, 2023).
